Active and inactive are the calls of the source. The rule behind the calls is not given here.
Target: Toxin B (TcdB) glycohydrolase, Clostridioides difficile 630
Assay: TcdB glycohydrolase inhibitors, dose response, biochemical, cherry-pick, plate reader (AID 720512)
Settings: recombinant TcdB glycohydrolase activity

SMILES | activity change, negative = inhibition (at 19.5 µM (top of the series)) | also measured
CCOC(=O)N1CCC(c2cc(=O)n3[nH]c(-c4ccccc4)cc3n2)CC1 | inactive | 
Cn1c(=O)[nH]c(=O)c2c1[nH]c(=S)n2CCCc1ccccc1 | inactive | 
ON=C1c2ccccc2-c2ccc(O)cc21 |  | AC50: 22 µM
COc1ccc(NC(c2ccccc2)c2ccncc2)cc1 (stereo unspecified) | inactive | 
CCC(=O)c1cn(CC(=O)Nc2cccc(C)c2C)c2ccccc12 | inactive | 
COc1ccc(CNC(=O)C2=CC(c3ccc(OC)cc3)=NS(=O)(=O)N2C)cc1 | inactive | 
Cc1ccc(C)c2sc(NC(=O)c3ccc(N4C(=O)CCC4=O)cc3)nc12 | inactive | 
Cc1ccc(S(=O)(=O)/N=C(/Nc2cccc(O)c2)c2ccccc2)cc1 | inactive | 
COc1cc(/C=N/NC2=NCCCCC2)ccc1O | inactive | 
COc1ccc(OCc2cc(-c3ccc(Cl)cc3)no2)cc1 | inactive | 
COc1cccc(CC(=O)OCC(=O)Nc2c(C)nn(-c3ccccc3)c2C)c1 | inactive | 
O=C(N/N=C/c1ccc(O)cc1)NC12CC3CC(CC(C3)C1)C2 | inactive | 
Cc1ccc(CN2C(=O)CN=C(c3ccccc3)c3ccccc32)cc1 | inactive | 
O=C(Nc1ccc(N2CCOCC2)c(Cl)c1)c1ccc(F)cc1 | inactive | 
Cc1ccc(S(=O)(=O)Oc2cccc(/C=N/n3cnnc3)c2)cc1 | inactive | 
COc1ccc(N2CCN(CCNC(=O)Nc3cc(Cl)ccc3OC)CC2)cc1 | inactive | 
COc1ccc(-c2ccc3c(c2)[C@H]2[C@H](CCN2C(=O)CN2CCOCC2)[C@@H](CO)N3)cc1 | inactive | 
COc1cccc(C(=O)Nc2ccc3c(c2)C(=O)N(C)[C@@H]2CC[C@H](CC(=O)NCCCN4CCOCC4)O[C@@H]2CO3)c1 | inactive | 
Cc1cc(/C=C(\C#N)C(=O)N2CCCCC2)cc(C)c1O | inactive | 
CC1C(=O)C(C)C(c2ccc([N+](=O)[O-])cc2)NC1c1ccc([N+](=O)[O-])cc1 (stereo unspecified) | inactive | 
O=C(CSc1cccc2cccnc12)N/N=C/c1ccc(O)cc1 | inactive | 
CN(C)c1ccc(C(=O)OCC#CCSc2nnc(-c3cccc4ccccc34)o2)cc1 | inactive | 

SMILES | activity change, negative = inhibition (at 19.5 µM (top of the series)) | also measured
CNC(=S)N/N=C/c1c(C(=O)OC)cnn1-c1ccc(F)cc1F | inactive | 
Nc1nnn(CC(=O)N/N=C/c2ccc(O)cc2)n1 | inactive | 
O=C(c1cn(-c2ccccc2)nc1-c1ccncc1)n1nnc2ccccc21 | inactive | 
CCOC(=O)C1=C(C)Nc2nnnn2C1c1ccc(OC)c(Br)c1 (stereo unspecified) | inactive | 
Cc1ccc(/C=C/c2onc(C)c2S(=O)(=O)N2CCC(C(=O)N3CCN(C)CC3)CC2)cc1 | inactive | 
COCc1c(Br)c(C)nc(OCC(=O)N/N=C/c2ccc(C)o2)c1C#N | inactive | 
CSc1ccc(/C=N/N2CCN(Cc3ccc(Cl)cc3)CC2)cc1 | inactive | 
CCCCn1c(=S)[nH]c2c(=O)n(C)c(=O)n(C)c21 | inactive | 
O=C(N/C(=C\c1ccc(O)cc1)C(=O)N1CCCCC1)c1ccccc1 | inactive | 
CCC(=O)Nc1ccc2c(c1)OC[C@H](C)N(C(=O)NC(C)C)C[C@@H](C)[C@@H](OC)CN(C)C2=O | inactive | 
Cn1c(=O)c2c(nc(N3CCOCC3)n2CCSc2ncccn2)n(C)c1=O | inactive | 
COc1ccc2cc3c(nc2c1)OCC3 | inactive | 
Cc1cccc(CN2CCN(c3ncccn3)CC2)c1 | inactive | 
CC(C)NC(=O)N1CC[C@@H]2[C@H]1c1cc(-c3ccc(F)cc3)ccc1N(C)[C@H]2CO | inactive | 
COc1ccc(C2=NS(=O)(=O)N(C)C(C(=O)N(C)Cc3ccccc3)=C2)cc1OC | inactive | 
Cc1cc(C)c2nc(C)cc(N/N=C/c3ccc(O)cc3)c2c1 |  | AC50: > 39 µM (inactive)
O=c1c([N+](=O)[O-])cccn1Cc1ccc(F)cc1Cl | inactive | 
C=CCNc1n[nH]c(=S)s1 | inactive | 
O=C1c2c(O)ccc(O)c2C(=O)c2c(NCCNCCO)ccc(NCCNCCO)c21 |  | activity change, negative = inhibition (at 10 µM (top of the series)): inactive
Cc1ccc(S(=O)(=O)N2CC(CBr)=CCC2c2ccccc2)cc1 (stereo unspecified) |  | AC50: > 39 µM (inactive)
ClCC(CNCc1ccccc1)c1ccccc1 (stereo unspecified) | inactive | 
CCOc1cc(/C=N/n2cnnc2)ccc1O |  | AC50: > 39 µM (inactive)

SMILES | activity change, negative = inhibition (at 19.5 µM (top of the series)) | also measured
COc1cc(/C=N/NC(=O)c2cccc([N+](=O)[O-])c2)ccc1O |  | AC50: > 39 µM (inactive)
CCCCn1c(-c2ccccc2C)nc2cc3[nH]c(=O)c(C(C)C)nc3cc21 | inactive | 
O=C(c1ccc2c(c1)N(Cc1ccccc1)C(=O)c1ccccc1S2)N1CCCC1 | inactive | 
O=C(O)C1CCC(CN(Cc2cccc(Br)c2)C(=S)Nc2ccccc2F)CC1 (stereo unspecified) | inactive | 
Nc1nc(Cl)cc(NCCc2ccc(O)cc2)n1 | inactive | 
CC(=O)c1cccc(-c2ccnc3c2CC(C(=O)NCc2ccccc2)O3)c1 (stereo unspecified) | inactive | 
Cc1cccc2sc(NNC(=O)C3COc4ccccc4O3)nc12 (stereo unspecified) | inactive | 
Nc1ccc(Sc2ccc(N)cc2)cc1 | inactive | 
O=C(COc1ccc2ccc(=O)oc2c1)NCCN1CCOCC1 | inactive | 
Cc1cc(-c2ccc(NS(=O)(=O)c3ccccc3)c(C)c2)ccc1NS(=O)(=O)c1ccccc1 | inactive | 
COc1ccc(C2=NS(=O)(=O)N(C)C(C(=O)N3CCN(C)CC3)=C2)cc1 | inactive | 
O=S(=O)(Oc1ccccc1-c1ccccc1)c1ccccc1 | inactive | 
CC(=O)c1ccc(Nc2ccc(-c3ccccc3F)nn2)cc1 | inactive | 
O=C(C[C@@H]1C[C@H]2c3cc(NC(=O)c4ccc5c(c4)OCO5)ccc3O[C@H]2[C@H](CO)O1)NCc1cccc(F)c1 | inactive | 
COCC#Cc1ccc2c(c1)O[C@@H](CN(C)C(=O)CC1CC1)[C@H](C)CN([C@@H](C)CO)S2(=O)=O | inactive | 
CC(=O)Nc1ccc(S(=O)(=O)Nc2nc3ccccc3nc2-n2ccc(=NC(=O)c3ccc(F)cc3)cc2)cc1 | inactive | 
C[C@@H]1CN([C@@H](C)CO)S(=O)(=O)c2ccc(C#Cc3ccncc3)cc2O[C@H]1CN(C)C(=O)C1CC1 | inactive | 
NNC(=O)CNC(=O)Nc1n[nH]c(=S)s1 | inactive | 
CC(C)CNC(=O)C(=O)NCC1CCCN1S(=O)(=O)c1cccs1 (stereo unspecified) | inactive | 
CN(C)CCNc1cccc2sc3ccc(O)cc3c(=O)c12 |  | AC50: 12.4 µM
CNC(=O)N(O)C1N(/N=C/c2ccc(SC)cc2)C(=S)SC1(C)C (stereo unspecified) | inactive | 
COc1ccc(C2=NS(=O)(=O)N(C)C(C(=O)N3CCc4ccccc4C3)=C2)cc1OC | inactive | 

Source: PubChem BioAssay AID720512 (Broad Institute, 2013)
